Experimental findings from US5834454A, “Substituted guanidine derivatives, process for production thereof, and pharmaceutical uses thereof” (Sumitomo Pharmaceuticals Company, Limited, priority 1996, dated 1998) are described below.

T1 sequence (P26431 whole entry): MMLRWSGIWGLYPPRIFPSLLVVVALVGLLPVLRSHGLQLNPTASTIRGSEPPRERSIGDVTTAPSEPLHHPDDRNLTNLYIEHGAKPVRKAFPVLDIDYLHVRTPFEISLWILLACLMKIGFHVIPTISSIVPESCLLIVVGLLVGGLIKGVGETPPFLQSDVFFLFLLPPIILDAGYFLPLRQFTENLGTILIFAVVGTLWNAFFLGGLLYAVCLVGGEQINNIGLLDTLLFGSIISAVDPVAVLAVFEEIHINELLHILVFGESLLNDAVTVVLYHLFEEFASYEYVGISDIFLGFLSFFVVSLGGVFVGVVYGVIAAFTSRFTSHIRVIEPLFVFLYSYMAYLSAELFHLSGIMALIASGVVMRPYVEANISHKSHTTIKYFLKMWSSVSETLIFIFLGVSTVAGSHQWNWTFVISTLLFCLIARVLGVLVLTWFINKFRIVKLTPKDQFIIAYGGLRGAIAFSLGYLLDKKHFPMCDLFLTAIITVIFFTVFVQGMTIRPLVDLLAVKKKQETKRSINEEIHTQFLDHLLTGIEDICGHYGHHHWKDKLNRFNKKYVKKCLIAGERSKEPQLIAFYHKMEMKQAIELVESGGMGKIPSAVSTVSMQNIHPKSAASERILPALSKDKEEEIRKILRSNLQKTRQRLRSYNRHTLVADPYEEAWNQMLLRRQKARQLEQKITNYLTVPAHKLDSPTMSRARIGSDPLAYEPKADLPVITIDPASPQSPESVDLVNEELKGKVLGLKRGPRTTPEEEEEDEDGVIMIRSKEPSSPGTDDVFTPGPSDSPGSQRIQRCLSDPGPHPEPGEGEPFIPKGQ

The assay addresses T1, Na^+ /H^+ exchange transport system (Rattus norvegicus, UniProt P26431).
T1 construct: isolated ventricular myocytes (rat); endogenous in cells; host or cells: isolated rat ventricular myocytes (primary cells)
The assay can be described thus: Inhibitory effect on the Na^+ /H^+ exchange transport system (in vitro), pH change in isolated ventricular myocytes under an acid load. Format: cell-based. The procedure:
Inhibitry effect on the Na^+ /H^+ exchange transport system (in vitro)
A test was carried out according to the method of Iemori et al. (J. Hypertension, 8, 153 (1990)). In detail, inhibitory effect on the Na^+ /H^+ exchange transport system was evaluated by using as an indication a pH change in isolated ventricular myocytes (rat) under an acid load.
A word on the IC50: it is the concentration that inhibits the measured activity by half. The compound `Cc1ccc2c3c1cc(C(=O)N=C(N)N)n3CCO2` [Example 2, N-(aminoiminomethyl)-2,3-dihydro-7-methyl-pyrrolo [1,2,3-de]-1,4-benzoxazine-5-carboxamide methanesulfonate] displayed an IC50 of 200 nM.
Compound `Cc1ccc2c3c1cc(C(=O)N=C(N)N)n3CCC2=O` [Example 1, N-(aminoiminomethyl)-5,6-dihydro-9-methyl-6-oxo-4H-pyrrolo [3,2,1-ij]quinoline-2-carboxamide methanesulfonate] had an IC50 of 300 nM.
The compound `NC(N)=NC(=O)c1cc2cccc3c2n1CCC3` [Example 3, N-(aminoiminomethyl)-5,6-dihydro-4H-pyrrolo [3,2,1-ij]quinoline-2-carboxamide methanesulfonate] gave an IC50 of 300 nM.
